This note sets out measurements from ChEMBL document CHEMBL1137399, “Synthesis, structure-activity relationships, and antitumor studies of 2-benzoxazolyl hydrazones derived from alpha-(N)-acyl heteroaromatics” (J Med Chem, 2006).

By IC50 is commonly meant the concentration at which inhibition is half-maximal. A lower IC50 goes with greater potency.

For test [1], the system named is HeLa. The test is described as follows: Antiproliferative activity against HeLa cells by SRB assay. The format is functional, cell-based. To be noted: Homo sapiens. For orientation: Sulforhodamine B stains cellular protein and so reports cell mass.
In the next test the test system is HT-29. The test is described as follows: Antiproliferative activity against HT29 cells by SRB assay. The format is functional, cell-based. To be noted: Homo sapiens.
In a further test the test system is CCRF-CEM. The test is described as follows: Antiproliferative activity against CCRF-CEM cells by MTT assay. The format is functional, cell-based. To be noted: Homo sapiens. Background: Tetrazolium assays rely on reduction of a dye to a coloured formazan, in cell work by metabolically active cells.
Another test concerns Burkitts lymphoma cell. Nature of the test: Antiproliferative activity against Burkitt cells by MTT assay. The format is functional, cell-based. To be noted: Homo sapiens.
Test [2] deals with HeLa. The test is described as follows: Antiproliferative activity against HeLa-mdr1 cells overexpressing P-glycoprotein in presence of verapamil by SRB assay. The format is functional, cell-based. To be noted: Homo sapiens.
A further test has as its system SF-295. Nature of the test: Net cell kill against human SF295 cells by hollow fiber assay. The format is functional, cell-based.
A further test deals with OVCAR-3. Nature of the test: Net cell kill against human OVCAR-3 cells by hollow fiber assay. It is filed as functional, cell-based.
The next test relates to HL-60. The test is described as follows: Ratio for antiproliferative activity against HL60/AR cells to wild type HL60 by MTT assay. The format is functional, Homo sapiens.

Each structure is given as a SMILES string. Active and inactive are the calls of the source. The calls are words filed in the database; no cut-off is given here.

As to `C/C(=N\Nc1nc2ccccc2o1)c1ccncn1`, the IC50 in the test on HeLa [1] was determined as 500 nM; in the test with HT-29 it was 190 nM; in the test on CCRF-CEM, 360 nM; in the test with Burkitts lymphoma cell, 144 nM.

Turning to `C/C(=N\N(C)c1nc2ccccc2o1)c1ccccn1`, the IC50 with HeLa [1], with HT-29, with CCRF-CEM and with Burkitts lymphoma cell was greater than 50000 nM each time.

With `C/C(=N\Nc1nc2ccccc2o1)c1cccnc1`, the IC50 with HeLa [1], in the test with HT-29, in the test on CCRF-CEM and in the test on Burkitts lymphoma cell was greater than 100000 nM in each case.

In the case of `CCC/C(=N\Nc1nc2ccccc2o1)c1ccccn1`, the IC50 came to 153 nM in the test on HeLa [1], 851 nM in the test on HT-29, 6 nM in the test on CCRF-CEM and 6 nM in the test with Burkitts lymphoma cell.

As to `C/C(=N\Nc1nc2ccccc2o1)c1ccc2ccccc2n1`, the IC50 turned out to be 4530 nM with HeLa [1], 7760 nM in the test on HT-29, 7040 nM in the test with CCRF-CEM and 5490 nM in the test on Burkitts lymphoma cell.

Regarding `CC(C)(C)/C(=N\Nc1nc2ccccc2o1)c1ccccn1`, the IC50 in the test on HeLa [1], with HT-29, in the test on CCRF-CEM and in the test on Burkitts lymphoma cell was greater than 10000 nM each time.

As for `C/C(=N\Nc1nc2ccccc2o1)c1ccc(C)nn1`, the IC50 in the test on HeLa [1] stood at 3390 nM; in the test on HT-29 it was 6770 nM; with CCRF-CEM, 2550 nM; in the test on Burkitts lymphoma cell it was 6270 nM.

For the molecule `CC[C@]1(O)C[C@@H]2CN(CCc3c([nH]c4ccccc34)[C@@](C(=O)OC)(c3cc4c(cc3OC)N(C)[C@H]3[C@@](O)(C(=O)OC)[C@H](OC(C)=O)[C@]5(CC)C=CCN6CC[C@]43[C@@H]65)C2)C1`, the outcome with HeLa [2] was Active.

Take `C/C(=N\Nc1nc2ccccc2o1)c1nccnc1C`: the IC50 in the test with HeLa [1] is 1860 nM; in the test with HT-29, 2140 nM; in the test with CCRF-CEM, 1300 nM; in the test with Burkitts lymphoma cell it was 900 nM.

Consider `c1ccc(C/C(=N\Nc2nc3ccccc3o2)c2ccccn2)cc1`, for which the IC50 with HeLa [1] was 42 nM; in the test with HT-29, 219 nM; with CCRF-CEM, greater than 10000 nM; with Burkitts lymphoma cell it was greater than 10000 nM.

In the case of `C/C(=N\Nc1nc2ccccc2o1)c1cnc(C)cn1`, the IC50 came to 370 nM in the test with HeLa [1], 290 nM with HT-29, 620 nM in the test on CCRF-CEM and 150 nM in the test on Burkitts lymphoma cell.

Consider `C/C(=N\Nc1nc2ccccc2o1)c1ccccn1`, for which the IC50 turned out to be 770 nM in the test on HeLa [1], 1430 nM with HT-29, 24 nM with CCRF-CEM and 5 nM in the test with Burkitts lymphoma cell.

As to `C/C(=N\Nc1nc2ccccc2o1)c1ncccn1`, the IC50 is 180 nM with HeLa [1], 270 nM with HT-29, 130 nM with CCRF-CEM and 30 nM in the test with Burkitts lymphoma cell.

In the case of `C/C(=N\Nc1nc2ccccc2o1)c1cc2ccccc2cn1`, the IC50 in the test with HeLa [1] was found to be 100 nM; with HT-29 it was 40 nM; in the test with CCRF-CEM, 140 nM; in the test with Burkitts lymphoma cell, 30 nM. In addition, the outcome with SF-295 and with OVCAR-3 was Active. In the test with HL-60, the “Ratio IC50” value was found to be 1.7. The outcome in the test with HeLa [2] was inactive.

As for `CC/C(=N\Nc1nc2ccccc2o1)c1ccccn1`, the half-maximal inhibitory concentration (IC50) in the test with HeLa [1] is 52 nM; in the test on HT-29 it was 409 nM; with CCRF-CEM it was 4 nM; in the test with Burkitts lymphoma cell, 2 nM.

For `c1ccc(/C(=N\Nc2nc3ccccc3o2)c2ccccn2)cc1`, the IC50 in the test with HeLa [1] turned out to be 43 nM; with HT-29, 44 nM; in the test on CCRF-CEM, 78 nM; in the test with Burkitts lymphoma cell, 120 nM.

As for `C/C(=N\Nc1nc2ccccc2o1)c1cc(C)ncn1`, the IC50 worked out at 210 nM in the test on HeLa [1], 110 nM in the test on HT-29, 230 nM in the test with CCRF-CEM and 42 nM with Burkitts lymphoma cell.

For `C/C(=N\Nc1nc2ccccc2o1)c1cccnn1`, the IC50 came out at 1180 nM with HeLa [1], 2640 nM in the test on HT-29, 720 nM with CCRF-CEM and 1300 nM with Burkitts lymphoma cell.

Turning to `C/C(=N\Nc1nc2ccccc2o1)c1cccc[n+]1[O-]`, the IC50 is 288 nM in the test with HeLa [1], 4780 nM in the test with HT-29 and 27 nM in the test on Burkitts lymphoma cell.

Consider `c1ccc(C(=NNc2nc3ccccc3o2)c2ccccn2)nc1`, for which the IC50 in the test with HeLa [1] worked out at 156 nM; with HT-29 it was 6980 nM; in the test on CCRF-CEM, 44 nM; in the test with Burkitts lymphoma cell, 12 nM.

For the molecule `C/C(=N\Nc1nc2ccccc2o1)c1nccc2ccccc12`, the IC50 with HeLa [1] amounted to 340 nM; in the test on HT-29 it was 1930 nM; in the test on CCRF-CEM, 350 nM; in the test with Burkitts lymphoma cell it was 200 nM.

In the case of `c1ccc(/C(=N/Nc2nc3ccccc3o2)C2CC2)nc1`, the figures for the IC50 with HeLa [1], in the test on HT-29 and in the test with Burkitts lymphoma cell were 4490 nM, 20600 nM and 185 nM, respectively.

For `CC(C)/C(=N\Nc1nc2ccccc2o1)c1ccccn1`, the IC50 with HeLa [1] was 185 nM; in the test with HT-29 it was 645 nM; with CCRF-CEM it was 21 nM; in the test with Burkitts lymphoma cell, 14 nM.
